Results from patent publication US7323447B2, “Hepatitis C virus inhibitors” (Bristol-Myers Squibb Company, priority 2005, dated 2008).

Experiments:
Format in all cases: biochemical
[1] = target: T1, HCV NS3/4A protease complex (H77 strain) (Hepatitis C virus genotype 1a, UniProt P27958, C1454S/C1711G); assay: FRET peptide assay to monitor HCV NS3/4A proteolytic activity, H77 strain
T1 construct: DNA encoding the recombinant HCV NS3/4A protease complex (amino acids 1027 to 1711) for these strains; inferred from pET21b vector and Ni-NTA purification; made in house; host or cells: Escherichia coli BL21 (DE3), pET21b
From the text: (§1) HCV NS3 protease complexes, derived from the BMS strain, H77 strain or J4L6S strain, were generated, as described below. These purified recombinant proteins were generated for use in a homogeneous assay (see below) to provide an indication of how effective compounds of the present disclosure would be in inhibiting HCV NS3 proteolytic activity.
(§2) The H77 and J4L6S strains were used for production of recombinant NS3/4A protease complexes. DNA encoding the recombinant HCV NS3/4A protease complex (amino acids 1027 to 1711) for these strains was manipulated as described by P. Gallinari et al. (see Gallinari P, Paolini C, Brennan D, Nardi C, Steinkuhler C, De Francesco R. Biochemistry. 38(17):5620-32, (1999)). Briefly, a three-lysine solubilizing tail was added at the 3′-end of the NS4A coding region. The cysteine in the P1 position of the NS4A-NS4B cleavage site (amino acid 1711) was changed to a glycine to avoid the proteolytic cleavage of the lysine tag. Furthermore, a cysteine to serine mutation was introduced by PCR at amino acid position 1454 to prevent the autolytic cleavage in the NS3 helicase domain. […]

human liver cathepsin B = target: T2, human liver cathepsin B (Homo sapiens, UniProt P07858); assay: Specificity assay, cathepsin B; conditions: read-out: Cathepsin B activity in the specificity assays (IC50)
T2 construct: purchased Sigma or EMDbiosciences; host or cells: human liver
Procedure: (§3) The specificities of compounds of the present disclosure were determined against a variety of serine proteases: human neutrophil elastase (HNE), porcine pancreatic elastase (PPE) and human pancreatic chymotrypsin and one cysteine protease: human liver cathepsin B. In all cases, a 96-well plate format protocol using colorimetric p-nitroaniline (pNA) substrate or fluorometric Amino-Methyl-Coumarin (AMC) substrate, specific for each enzyme was used as described previously (PCT Patent Application No. WO 00/09543) with some modifications. All enzymes were purchased from Sigma or EMDbiosciences while the substrates were from Bachem.
(§4) Each pNA assay included a 2 hours enzyme-inhibitor pre-incubation at room temperature followed by addition of substrate and hydrolysis to ˜15% conversion as measured on a Spectramax Pro microplate reader. The cathepsin B assay was initiated by adding substrate to a 10 min enzyme-inhibitor pre-incubation at room temperature, and the assay plate measured immediately using the Cytofluor Series 4000. Compound concentrations varied from 100 to 0.4 μM depending on their potency. […]
(§5) The percentage of inhibition was calculated using the formula: [1−((UVinh−UVblank)/(UVctl−UVblank))]×100 […]

[2] = target: T3, HCV NS3/4A protease complex (J4L6S strain) (Hepatitis C virus genotype 1b, UniProt O92972, C1454S/C1711G); assay: FRET peptide assay to monitor HCV NS3/4A proteolytic activity, J4L6S strain
T3 construct: DNA encoding the recombinant HCV NS3/4A protease complex (amino acids 1027 to 1711) for these strains; inferred from pET21b vector and Ni-NTA purification; made in house; host or cells: Escherichia coli BL21 (DE3), pET21b
From the text: as §1, §2

[3] = target: T4, human pancreatic chymotrypsin (Homo sapiens, UniProt P17538); assay: Specificity assay, chymotrypsin; conditions: read-out: Chymotrypsin activity in the specificity assays (IC50)
T4 construct: purchased Sigma or EMDbiosciences
Procedure: as §3, §4, §5

T4 sequence (P17538 19-263): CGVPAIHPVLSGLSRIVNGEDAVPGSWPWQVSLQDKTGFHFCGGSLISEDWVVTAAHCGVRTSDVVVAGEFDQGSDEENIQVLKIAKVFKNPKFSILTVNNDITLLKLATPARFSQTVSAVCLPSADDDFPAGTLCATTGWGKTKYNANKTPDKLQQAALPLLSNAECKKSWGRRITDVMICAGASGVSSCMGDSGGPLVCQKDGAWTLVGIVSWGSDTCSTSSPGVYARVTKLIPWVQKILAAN
T1 sequence (P27958 1027-1711 C1454S/C1711G, one chain of several): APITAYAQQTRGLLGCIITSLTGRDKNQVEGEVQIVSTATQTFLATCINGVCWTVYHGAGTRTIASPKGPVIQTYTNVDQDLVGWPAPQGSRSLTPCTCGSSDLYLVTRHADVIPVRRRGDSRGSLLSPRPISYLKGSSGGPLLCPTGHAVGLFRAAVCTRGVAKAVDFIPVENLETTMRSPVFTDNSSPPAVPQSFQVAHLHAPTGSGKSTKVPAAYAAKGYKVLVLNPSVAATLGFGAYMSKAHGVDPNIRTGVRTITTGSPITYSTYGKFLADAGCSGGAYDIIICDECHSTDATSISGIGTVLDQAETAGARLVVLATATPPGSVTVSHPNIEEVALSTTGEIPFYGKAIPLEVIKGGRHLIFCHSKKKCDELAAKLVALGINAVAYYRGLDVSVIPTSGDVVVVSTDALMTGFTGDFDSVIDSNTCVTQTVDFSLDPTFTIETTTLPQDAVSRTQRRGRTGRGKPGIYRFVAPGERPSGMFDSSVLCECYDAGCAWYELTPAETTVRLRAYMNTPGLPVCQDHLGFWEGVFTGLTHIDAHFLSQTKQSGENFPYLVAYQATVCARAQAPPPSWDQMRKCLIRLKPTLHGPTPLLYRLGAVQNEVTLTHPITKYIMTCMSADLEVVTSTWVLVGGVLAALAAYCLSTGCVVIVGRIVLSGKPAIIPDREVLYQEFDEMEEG
T3 sequence (O92972 1027-1711 C1454S/C1711G, one chain of several): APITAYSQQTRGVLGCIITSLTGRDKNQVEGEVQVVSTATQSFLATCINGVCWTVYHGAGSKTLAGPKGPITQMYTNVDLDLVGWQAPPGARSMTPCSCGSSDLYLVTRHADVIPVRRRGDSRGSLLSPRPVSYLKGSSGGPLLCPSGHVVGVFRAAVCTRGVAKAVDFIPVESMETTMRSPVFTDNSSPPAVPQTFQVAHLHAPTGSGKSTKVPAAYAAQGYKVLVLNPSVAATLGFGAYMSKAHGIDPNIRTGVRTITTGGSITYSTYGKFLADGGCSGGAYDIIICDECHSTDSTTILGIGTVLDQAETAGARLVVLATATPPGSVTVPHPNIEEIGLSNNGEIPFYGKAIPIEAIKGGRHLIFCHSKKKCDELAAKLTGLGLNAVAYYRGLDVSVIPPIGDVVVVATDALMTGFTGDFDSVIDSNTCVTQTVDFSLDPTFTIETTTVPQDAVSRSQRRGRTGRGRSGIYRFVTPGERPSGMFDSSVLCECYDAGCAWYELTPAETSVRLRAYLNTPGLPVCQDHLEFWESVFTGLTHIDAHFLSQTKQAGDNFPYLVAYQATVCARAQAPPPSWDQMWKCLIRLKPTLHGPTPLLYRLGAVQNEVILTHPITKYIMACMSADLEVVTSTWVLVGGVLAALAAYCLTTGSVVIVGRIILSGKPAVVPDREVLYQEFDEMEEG

In the case of `C=C[C@@H]1C[C@]1(NC(=O)[C@@H]1C[C@@H](OC(=O)N2Cc3cccc(F)c3C2)CN1C(=O)[C@@H](OC(=O)NC(C)(C)C)C(C)(C)C)C(=O)NS(=O)(=O)C1CC1` [Example 56Compound 56], the IC50 [1] is reported as 17 nM, the IC50 (human liver cathepsin B) is reported as > 100000 nM and the IC50 [2] is reported as 9.8 nM. The IC50 [3] was > 100000 nM.
